From ChEMBL document CHEMBL1201862, “PubChem BioAssay data set” (2004) come the findings set out here.

Each structure is given as a SMILES string.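 These data come from cells grown in 96-well plates and exposed to compound for 48 hours at five concentrations. GI50 marks 50% less growth.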 The source made the active and inactive calls. Rule as the data show it: active = GI50 up to about 1.1 µM and inactive = higher.

Holding throughout (experiment): NCI-60 cell line screen, 48 h
In test [1] the test system is EKVX.
Test [2] has as its system LOX IMVI.
The subject of test [3] is SNB-19.
The subject of test [4] is SR.
For test [5], the system named is OVCAR-3.
Test [6] relates to SK-MEL-5.
Test [7] has as its system NCI-H522.
For test [8], the system named is Malme-3M.
The subject of test [9] is HOP-92.
Test [10] deals with HCT-116.
The subject of test [11] is SK-MEL-2.
The test system of test [12] is M14.
Test [13] concerns RXF 393.
Test [14] relates to DU-145.
For test [15], the system named is A549.
The subject of test [16] is NCI-H460.
The test system of test [17] is MDA-MB-435.
In test [18] the test system is HCT-15.
The subject of test [19] is SK-OV-3.
For test [20], the system named is MDA-MB-231.

Regarding `CCOC(=O)C(C(=O)OCC)=C1NC2(c3ccccc3Nc3ccc(C)cc32)C(C#N)S1` (configuration not stated), the GI50 was 8.83 µM (inactive) in test [1]; 12.1 µM (inactive) in test [2]; 6.58 µM (inactive) in test [3]; 2.44 µM (inactive) in test [4]; 3.39 µM (inactive) in test [5]; 7.73 µM (inactive) in [6]. Also, the GI50 in [7] is 11.2 µM (inactive); in [8], 15 µM (inactive); in [9], 4.26 µM (inactive); in test [10] it was 5.58 µM (inactive); in test [11], 8.07 µM (inactive); in test [12] it was 3.92 µM (inactive). Moreover, the GI50 in test [13] is 6.68 µM (inactive); in test [14], 11.3 µM (inactive); in [15], 3.01 µM (inactive); in test [16] it was 3.27 µM (inactive); in test [17], 5.65 µM (inactive); in [18], 6 µM. For the same compound, the GI50 in test [19] was 13.4 µM (inactive).

For the compound `Cc1ccc(/N=C2\SC(=S)N(CCC[N+](C)(C)C)\C2=N/c2ccc(C)cc2)cc1`, the GI50 in test [1] is 17 µM (inactive); in test [3], 8.24 µM (inactive); in test [4], 7.03 µM (inactive); in test [6], 10.9 µM (inactive); in [8], 18.1 µM (inactive); in [9] it was 14.2 µM (inactive). In addition, the GI50 is 11 µM (inactive) in [10]; 11 µM (inactive) in test [11]; 14.3 µM (inactive) in [20]; 21.1 µM (inactive) in test [12]; 2.49 µM (inactive) in test [13]; 15.6 µM (inactive) in [15]. Besides, the GI50 is 18.1 µM (inactive) in [16] and 13.8 µM in [18].

Take `COC(=O)CCC(=O)CC1CC(=O)C2CCCN12` (configuration not stated): the GI50 in test [1], in [2], in [3], in test [4], in test [5] and in test [6] was > 100 µM (inactive) each time. Moreover, the GI50 in [7], in test [8], in test [9], in test [10], in test [11] and in [12] was > 100 µM (inactive) throughout. Further, the GI50 in test [13], in [15], in [16] and in test [19] was > 100 µM (inactive) throughout.

For the compound `CC(=O)OC1CC2C(C)(C)OC(=O)CC(OC(C)=O)[C@]2(C)C2CCC3(C)C(=CCC3c3ccoc3)[C@]12C` (some centres not stated), the GI50 was 15.5 µM (inactive) in test [1]; 28.7 µM (inactive) in test [2]; 14.3 µM (inactive) in [3]; 8.15 µM (inactive) in [4]; 16.2 µM (inactive) in [5]; 21.4 µM (inactive) in test [6]. For the same compound, the GI50 is 15.6 µM (inactive) in test [7]; 25.6 µM (inactive) in [8]; 6.32 µM (inactive) in [9]; 14.4 µM (inactive) in [10]; 10.9 µM (inactive) in test [11]; 18.9 µM (inactive) in test [12]. Also, the GI50 was 24 µM (inactive) in [13]; 19.4 µM (inactive) in test [15]; 21.4 µM (inactive) in test [16]; 26.2 µM in test [18]; 21.7 µM (inactive) in test [19].

For the compound `COc1ccc(-c2c3c(n(C4OC(COC(C)=O)C(OC(C)=O)C(OC(C)=O)C4OC(C)=O)c(=S)c2C#N)CCC3)cc1` (configuration not stated), the GI50 in test [2] is > 100 µM (inactive); in [3] it was > 100 µM (inactive); in test [4] it was > 100 µM (inactive); in test [5], > 100 µM (inactive); in test [6] it was 38.8 µM (inactive); in test [8] it was > 100 µM (inactive). The GI50 is 6.82 µM (inactive) in test [9]; > 100 µM (inactive) in test [10]; > 100 µM (inactive) in test [11]; > 100 µM (inactive) in test [12]; 92.3 µM (inactive) in test [13]; > 100 µM (inactive) in test [14]. Further, the GI50 in test [15] was > 100 µM (inactive); in [16], > 100 µM (inactive); in test [17], > 100 µM (inactive); in test [18] it was > 100 µM; in test [19], > 100 µM (inactive).

In the case of `COc1cc(-c2nnc3n2NC=C(C(=O)O)S3)cc(OC)c1OC`, the GI50 is > 100 µM (inactive) in test [1]; > 100 µM (inactive) in test [2]; > 100 µM (inactive) in [3]; 41.6 µM (inactive) in test [4]; > 100 µM (inactive) in test [5]; > 100 µM (inactive) in test [6]. For the same compound, the GI50 is > 100 µM (inactive) in test [7]; > 100 µM (inactive) in test [8]; > 100 µM (inactive) in test [9]; > 55.1 µM (inactive) in test [10]; > 100 µM (inactive) in test [11]; > 81.3 µM (inactive) in test [12]. The GI50 was > 100 µM (inactive) in [13]; > 100 µM (inactive) in [15]; > 71.4 µM (inactive) in test [16]; > 54.5 µM in [18]; > 100 µM (inactive) in test [19].

`Cn1cnc(S[C@H]2[C@H]3C(=O)C=C4S[C@H]5C[C@]42C2=C(N5)C(=O)c4[nH]cc5c4C2=[N+]3CC5)c1C[C@H](N)C(=O)O`: the GI50 in [1] is 17.7 µM (inactive); in test [2], 13.1 µM (inactive); in test [3], 17.6 µM (inactive); in [4], 19.1 µM (inactive); in test [5], 3.5 µM (inactive); in test [6], 13.4 µM (inactive). In addition, the GI50 in test [7] was 4.58 µM (inactive); in test [8] it was 3.72 µM (inactive); in [9], 18.9 µM (inactive); in test [10], 3.7 µM (inactive); in test [11], 13.7 µM (inactive); in test [12] it was 15.4 µM (inactive). For the same compound, the GI50 was 22.1 µM (inactive) in [13]; 20.4 µM (inactive) in test [15]; 27.5 µM (inactive) in test [16]; 30.8 µM in test [18]; 21.4 µM (inactive) in [19].

Take `Nc1nn2c(=O)c3ccccc3nc2s1`: the GI50 is > 100 µM (inactive) in test [1]; 17.5 µM (inactive) in test [2]; > 100 µM (inactive) in test [3]; 20.5 µM (inactive) in test [4]; > 100 µM (inactive) in test [5]; 56 µM (inactive) in [6]. The GI50 in test [7] was 17.5 µM (inactive); in test [9] it was > 100 µM (inactive); in [10], 57.3 µM (inactive); in test [11] it was > 100 µM (inactive); in test [12], 28.6 µM (inactive); in test [13], > 100 µM (inactive). The GI50 in test [14] is > 100 µM (inactive); in test [15], > 100 µM (inactive); in test [16] it was > 100 µM (inactive); in [17], > 100 µM (inactive); in [18], 44.9 µM; in test [19], > 100 µM (inactive).

Consider `CCCN1C(=O)CNC(=O)c2[nH]cnc21`, for which the GI50 in test [1], in test [2], in test [3], in test [4], in test [5] and in [6] was > 100 µM (inactive) throughout. Further, the GI50 in test [7], in test [8], in test [9], in test [10], in [11] and in [12] was > 100 µM (inactive) in each case. The GI50 was > 100 µM (inactive) in test [13]; > 100 µM (inactive) in test [15]; > 100 µM (inactive) in [16]; > 100 µM in [18]; > 100 µM (inactive) in test [19].

As to `Cc1ccc(S(=O)(=O)NC(=O)C2(Br)S(=O)(=O)OCCOS2(=O)=O)cc1`, the GI50 in [1], in [2], in test [3], in [4], in test [5] and in test [6] was > 100 µM (inactive) in each case. For the same compound, the GI50 in [7], in test [8], in [9], in test [10], in [11] and in test [12] was > 100 µM (inactive) in each case. Also, the GI50 in test [13] was > 100 µM (inactive); in [15], > 100 µM (inactive); in test [16], > 100 µM (inactive); in test [18] it was > 100 µM; in [19], > 100 µM (inactive).

With `COc1cc2ccc3c4cc(OC)c(OC(C)C)cc4c[n+](C)c3c2cc1OC`, the GI50 in test [1] is > 100 µM (inactive); in test [2], 54.3 µM (inactive); in [3] it was > 100 µM (inactive); in test [4] it was 47.8 µM (inactive); in test [5], 19.7 µM (inactive); in test [6] it was 42 µM (inactive). Moreover, the GI50 was 17.4 µM (inactive) in test [7]; 48.9 µM (inactive) in [8]; 36.7 µM (inactive) in [9]; > 100 µM (inactive) in test [10]; 30.8 µM (inactive) in test [11]; 64.6 µM (inactive) in [12]. Besides, the GI50 in test [13] was 27.7 µM (inactive); in [15] it was > 100 µM (inactive); in test [16] it was > 100 µM (inactive); in test [18], > 100 µM; in test [19], > 100 µM (inactive).

Regarding `CN1CNc2nc(N)n(C)c(=O)c2C1`, the GI50 in test [1], in [3], in test [4], in test [5], in test [7] and in [8] was > 10 µM (inactive) throughout. The GI50 in test [9], in test [11], in test [12], in test [13], in [14] and in test [15] was > 10 µM (inactive) throughout. Also, the GI50 in test [16] is > 10 µM (inactive); in test [17], > 10 µM (inactive); in test [18], > 10 µM; in test [19], > 10 µM (inactive).
